# Where two headings read alike, the source gives them in different places.
# Assays:
# [1] = physical and chemical storage stability of polymorphic forms; conditions: for physically stable, duration: ambient condition
# [2] = pH 5.4
# [3] = 40° C. under 75% relative humidity
SMILES,"conversion to Form III (Hydrate B) [1, 3]","physically stable, duration [1]",aqueous solubility [2] [µg/mL],further results
"CNCc1ccc(-c2[nH]c3cc(F)cc4c3c2CCNC4=O)cc1.O=P(O)(O)O [Form I, phosphate salt of 8-fluoro-2-{4-[(methylamino)methyl]phenyl}-1,3,4,5-tetrahydro-6H-azepino[5,4,3-cd]indol-6-one]",after one week,at least 3 months,2800,
"CNCc1ccc(-c2[nH]c3cc(F)cc4c3c2CCNC4=O)cc1.O=P(O)(O)O [Form II, phosphate salt of 8-fluoro-2-{4-[(methylamino)methyl]phenyl}-1,3,4,5-tetrahydro-6H-azepino[5,4,3-cd]indol-6-one]",after 1 week,at least 3 months,3000,conversion to Form III (Hydrate B) ([1]; 25° C. under 90% relative humidity): overnight; Solubility (pH 3): 460 µg/mL; Solubility (pH 4): 390 µg/mL; Solubility (pH 5): 370 µg/mL; Solubility (pH 6): 320 µg/mL; Solubility (pH 7): 250 µg/mL; Solubility (pH 8): 190 µg/mL
"CNCc1ccc(-c2[nH]c3cc(F)cc4c3c2CCNC4=O)cc1.O=P(O)(O)O [Form III, phosphate salt of 8-fluoro-2-{4-[(methylamino)methyl]phenyl}-1,3,4,5-tetrahydro-6H-azepino[5,4,3-cd]indol-6-one]",,,2700,
"CNCc1ccc(-c2[nH]c3cc(F)cc4c3c2CCNC4=O)cc1.O=P(O)(O)O [Form IV, phosphate salt of 8-fluoro-2-{4-[(methylamino)methyl]phenyl}-1,3,4,5-tetrahydro-6H-azepino[5,4,3-cd]indol-6-one]",,,4500,
"CNCc1ccc(-c2[nH]c3cc(F)cc4c3c2CCNC4=O)cc1.O=P(O)(O)O [Form V, phosphate salt of 8-fluoro-2-{4-[(methylamino)methyl]phenyl}-1,3,4,5-tetrahydro-6H-azepino[5,4,3-cd]indol-6-one]",,,,"physically and chemically stable, duration ([1]; room temperature): at least 3 months"
